PMC7957705 (Molecules, 2021)
Entries after “also recorded” stand apart in the source; their conditions may differ. Marks after values point to notes of the source that are not given here. Where a SMILES comes first, the peptide text is derived from it. Bridges are numbered along the chain shown (N, C = ends). Triazole bridges read from a SMILES are 1,4-linked. [ ]: non-standard residue; d: D form. The star is where a group is joined. Benzoyl(4-guanidino) = N=C(N)Nc1ccc(C(=O)*)cc1; Aha = [N-]=[N+]=NCC[C@H](N)C(=O)O; β3hV = CC(C)[C@H](N)CC(=O)O; Nle = CCCC[C@H](N)C(=O)O; Pra = C#CC[C@H](N)C(=O)O

System: high-fat diet-induced obese C57BL/6 mice
Assay: Diet-induced obesity model: blood biochemistry
Assay type: in vivo, mouse
Settings: for Insulin / Total Cholesterol / Triglyceride: High-Fat Diet mice
Procedure: Male C57BL/6 mice at 4 weeks of age were provided by BioLasco Taiwan (under Charles River Laboratories Licensee). All animals were maintained in an environment with well-controlled temperature (20–24 °C) and humidity (30–70%) with 12 h light/dark cycles. Free access to standard lab diet (MFG (Oriental Yeast Co., Ltd., Japan)) and autoclaved tap water was granted. All aspects of this work including housing, experimentation, and animal disposal were performed in general accordance with the “Guide for the Care and Use of Laboratory Animals: Eighth Edition” (National Academies Press, Washington, D.C., 2011) in our laboratory animal facility accredited by the […]. In addition, the protocol for animal care and use was reviewed and approved by the Institutional Animal Care and Use Committee (IACUC) at Pharmacology Discovery Services Taiwan, Ltd.
ALT (Alanine aminotransferase) and AST (Aspartate aminotransferase) assay kit (Denka Seiken, Japan), Cholesterol assay kit (Denka, Japan), Creatinine assay kit (Denka Seiken, Japan), Mouse insulin ELISA kit (Crystal chem, Elk Grove Village, IL, USA), Na^+/K^+ assay kit (Toshiba, Japan), Triglyceride assay kit (Sentinel Diagnostics, Milano, Italy) and Water for injection (Tai-Yu, Taiwan).
The protocol was performed for all groups and all animals. Male C57BL/6 mice were fed a high-fat diet (HFD) (60% of calories) or a standard chow diet (STD) from 4 weeks of age. Thirty (30) mice were fed the HFD and 10 mice were fed the STD (for 8 weeks before treatment) for a total of 20 weeks. The mice assigned to the STD diet were maintained on this diet throughout the study as a reference group of lean control mice. From Week 9, HFD-fed mice were grouped by body weight before dosing. Body weight was recorded three times weekly from Week 9. Food/water intake was recorded twice weekly from Week 9. Blood chemistry analyzes were performed in Weeks 8 (before dosing, Day 56), 16 (Day 113) and 20 (Day 141), including serum insulin, total cholesterol (T-CHO), triglyceride (TG), alanine aminotransferase (ALT), aspartate aminotransferase (AST), uric acid (UA), creatinine, potassium (K^+) and sodium (Na^+). At the termination in Week 20 (Day 141), the adipose tissue weight, including epididymal, mesenteric, inguinal, retroperitoneal, and brown fat, was measured after the animals were sacrificed. Two-way ANOVA followed by Bonferroni’s tests were applied to ascertain the difference between vehicle control and treated animals. Significance was set at p < 0.05 level. The following parameters were measured: (1) body weight three times weekly; (2) food/water intake twice weekly; (3) blood chemistry in Weeks 8 (before dosing), 16 and 20 including glucose, insulin, serum lipids (triglycerides (TG), total cholesterol (TC), AST, alanine aminotransferase (ALT), uric acid, creatinine, potassium and sodium through 16-h fasting animals; and finally, (4) total body fat (including visceral and subcutaneous fat) in Week 20.

[1] = 5 and 10 mg/kg i.p. once daily for 12 weeks, day 113 and day 141
[2] = 5 or 10 mg/kg i.p. daily, HFD mice
[3] = 5 or 10 mg/kg i.p. daily, Day 113 and Day 141
[4] = 5 mg/kg QD x 12 weeks IP, Day 56 (before dosing), mean
[5] = 5 mg/kg QD x 12 weeks IP, Day 113, mean
[6] = 5 mg/kg QD x 12 weeks IP, Day 141, mean
[7] = 10 mg/kg QD x 12 weeks IP, Day 56 (before dosing), mean
[8] = 10 mg/kg QD x 12 weeks IP, Day 113, mean
[9] = 10 mg/kg QD x 12 weeks IP, Day 141, mean

CCCC[C@@H]1NC(=O)[C@@H](NC(=O)c2ccc(NC(=N)N)cc2)CCn2cc(nn2)C[C@@H](C(=O)N[C@@H](Cc2c[nH]c3ccccc23)C(=O)O)NC(=O)[C@@H]2CCCN2C(=O)[C@H](CCCNC(=N)N)NC(=O)C[C@H](C(C)C)NC(=O)[C@H](CCCNC(=N)N)NC(=O)[C@H](CC(C)C)NC1=O [GPS18169] ({Benzoyl(4-guanidino)}-[Aha][Nle]LR[β3hV]RP[Pra]W-OH; triazole 1-8)
insulin level (10 mg/kg daily, 12 weeks, vs vehicle treated/normal diet): back to the control | serum alanine aminotransferase (ALT) level vs vehicle [1]: not associated with any significant effect | serum aspartate aminotransferase (AST) level vs vehicle [1]: not associated with any significant effect | total cholesterol level [2]: remained high, despite a modest reduction; also recorded: improvement | triglycerides level [2]: remained high, despite a modest reduction; also recorded: improvement | insulin level (5 or 10 mg/kg i.p. daily, after 12 weeks of treatment, HFD mice): normalization; also recorded: significant reduction; also recorded: improvement; also recorded: return to almost normal | serum creatinine level vs vehicle [3]: did not lead to any significant effect | serum potassium (K+) level vs vehicle [3]: did not lead to any significant effect | serum sodium (Na+) level vs vehicle [3]: did not lead to any significant effect | serum uric acid (UA) level vs vehicle (5 or 10 mg/kg i.p. daily, Week 16 (Day 113) and Week 20 (Day 141)): did not lead to any significant effect | Insulin [4]: 909.5 pg/mL | Total Cholesterol [4]: 158.3 mg/dL | Triglyceride [4]: 121.8 mg/dL | Insulin [5]: 1983.8 pg/mL | Total Cholesterol [5]: 143.1 mg/dL | Triglyceride [5]: 115.3 mg/dL | Total Cholesterol [6]: 135.6 mg/dL | Triglyceride [6]: 108.9 mg/dL | Insulin [7]: 1068.0 pg/mL | Total Cholesterol [7]: 155.6 mg/dL | Triglyceride [7]: 122.9 mg/dL | Insulin [8]: 1549.7 pg/mL | Total Cholesterol [8]: 135.7 mg/dL | Triglyceride [8]: 108.3 mg/dL | Insulin [9]: 957.0 * pg/mL | Total Cholesterol [9]: 132.1 mg/dL | Triglyceride [9]: 102.1 mg/dL
